Experimental data published in article PMC10504751, “Chalcone/1,3,4-Oxadiazole/Benzimidazole hybrids as novel anti-proliferative agents inducing apoptosis and inhibiting EGFR & BRAFV^600E” (BMC Chemistry, 2023).

Key:
[1] = tested on: SK-MEL-2; test: NCI one-dose SRB anti-proliferative screen; assay type: cell-based; details: Homo sapiens; SK-MEL-2 (Melanoma), NCI one dose 10 µM; read-out: Cell growth inhibition %
In short: (§1)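 Read-out: sulforhodamine B protein stain measured colorimetrically after exposure of the cells to test compound at 10 µM. This line formed one member of a 60-line panel spanning lung, leukaemia, melanoma, colon, renal, CNS, prostate, breast and ovarian origins.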

[2] = tested on: SF-268; test: NCI one-dose SRB anti-proliferative screen; assay type: cell-based; details: Homo sapiens; SF-268 (CNS Cancer), NCI one dose 10 µM; read-out: Cell growth inhibition %
In short: as §1

[3] = tested on: A549/ATCC; test: NCI one-dose SRB anti-proliferative screen; assay type: cell-based; details: Homo sapiens; A549/ATCC (Non-Small Cell Lung Cancer), NCI one dose 10 µM; read-out: Cell growth inhibition %
In short: as §1

[4] = tested on: CCRF-CEM; test: NCI one-dose SRB anti-proliferative screen; assay type: cell-based; details: Homo sapiens; CCRF-CEM (Leukemia), NCI one dose 10 µM; read-out: Cell growth inhibition %
In short: as §1

[5] = tested on: KM12; test: NCI one-dose SRB anti-proliferative screen; assay type: cell-based; details: Homo sapiens; KM12 (Colon Cancer), NCI one dose 10 µM; read-out: Cell growth inhibition %
In short: as §1

[6] = tested on: M14; test: NCI one-dose SRB anti-proliferative screen; assay type: cell-based; details: Homo sapiens; M14 (Melanoma), NCI one dose 10 µM; read-out: Cell growth inhibition %
In short: as §1

[7] = tested on: HL-60(TB); test: NCI one-dose SRB anti-proliferative screen; assay type: cell-based; details: Homo sapiens; HL-60(TB) (Leukemia), NCI one dose 10 µM; read-out: Cell growth inhibition %
In short: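 Activity reflects a single-point exposure at 10 µM, with cell mass determined by a sulforhodamine B dye assay.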

[8] = tested on: SNB-75; test: NCI one-dose SRB anti-proliferative screen; assay type: cell-based; details: Homo sapiens; SNB-75 (CNS Cancer), NCI one dose 10 µM; read-out: Cell growth inhibition %
In short: as §1

[9] = tested on: ACHN; test: NCI one-dose SRB anti-proliferative screen; assay type: cell-based; details: Homo sapiens; ACHN (Renal Cancer), NCI one dose 10 µM; read-out: Cell growth inhibition %
In short: as §1

[10] = tested on: MDA-MB-468; test: NCI one-dose SRB anti-proliferative screen; assay type: cell-based; details: Homo sapiens; MDA-MB-468 (Breast Cancer), NCI one dose 10 µM; read-out: Cell growth inhibition %
In short: as §1

[11] = tested on: HOP-92; test: NCI one-dose SRB anti-proliferative screen; assay type: cell-based; details: Homo sapiens; HOP-92 (Non-Small Cell Lung Cancer), NCI one dose 10 µM; read-out: Cell growth inhibition %
In short: as §1

[12] = tested on: SF-539; test: NCI one-dose SRB anti-proliferative screen; assay type: cell-based; details: Homo sapiens; SF-539 (CNS Cancer), NCI one dose 10 µM; read-out: Cell growth inhibition %
In short: as §1

[13] = tested on: HS 578T; test: NCI one-dose SRB anti-proliferative screen; assay type: cell-based; details: Homo sapiens; HS 578T (Breast Cancer), NCI one dose 10 µM; read-out: Cell growth inhibition %
In short: as §1

[14] = tested on: NCI-H460; test: NCI one-dose SRB anti-proliferative screen; assay type: cell-based; details: Homo sapiens; NCI-H460 (Non-Small Cell Lung Cancer), NCI one dose 10 µM; read-out: Cell growth inhibition %
In short: as §1

[15] = tested on: COLO 205; test: NCI one-dose SRB anti-proliferative screen; assay type: cell-based; details: Homo sapiens; COLO 205 (Colon Cancer), NCI one dose 10 µM; read-out: Cell growth inhibition %
In short: as §1

[16] = tested on: LOX IMVI; test: NCI one-dose SRB anti-proliferative screen; assay type: cell-based; details: Homo sapiens; for inhibition at 10 µM: LOX IMIV (Melanoma), NCI one dose 10 µM, read-out: Cell growth inhibition %
In short: as §1

[17] = tested on: OVCAR-5; test: NCI one-dose SRB anti-proliferative screen; assay type: cell-based; details: Homo sapiens; OVCAR-5 (Ovarian Cancer), NCI one dose 10 µM; read-out: Cell growth inhibition %
In short: as §1

[18] = tested on: HT29; test: NCI one-dose SRB anti-proliferative screen; assay type: cell-based; details: Homo sapiens, HT-29; HT29 (Colon Cancer), NCI one dose 10 µM; read-out: Cell growth inhibition %
In short: as §1

[19] = tested on: OVCAR-4; test: NCI one-dose SRB anti-proliferative screen; assay type: cell-based; details: Homo sapiens; OVCAR-4 (Ovarian Cancer), NCI one dose 10 µM; read-out: Cell growth inhibition %
In short: as §1

[20] = tested on: NCI/ADR-RES; test: NCI one-dose SRB anti-proliferative screen; assay type: cell-based; details: Homo sapiens; NCI/ADR-RES (Ovarian Cancer), NCI one dose 10 µM; read-out: Cell growth inhibition %
In short: as §1

[21] = tested on: UACC-257; test: NCI one-dose SRB anti-proliferative screen; assay type: cell-based; details: Homo sapiens; UACC-257 (Melanoma), NCI one dose 10 µM; read-out: Cell growth inhibition %
In short: as §1

[22] = tested on: HCT-15; test: NCI one-dose SRB anti-proliferative screen; assay type: cell-based; details: Homo sapiens; HCT-15 (Colon Cancer), NCI one dose 10 µM; read-out: Cell growth inhibition %
In short: as §1

[23] = tested on: OVCAR-3; test: NCI one-dose SRB anti-proliferative screen; assay type: cell-based; details: Homo sapiens; OVCAR-3 (Ovarian Cancer), NCI one dose 10 µM; read-out: Cell growth inhibition %
In short: as §1

[24] = tested on: UACC-62; test: NCI one-dose SRB anti-proliferative screen; assay type: cell-based; details: Homo sapiens; UACC-62 (Melanoma), NCI one dose 10 µM; read-out: Cell growth inhibition %
In short: as §1

[25] = tested on: PC-3; test: NCI one-dose SRB anti-proliferative screen; assay type: cell-based; details: Homo sapiens; PC-3 (Prostate Cancer), NCI one dose 10 µM; read-out: Cell growth inhibition %
In short: as §1

[26] = tested on: DU-145; test: NCI one-dose SRB anti-proliferative screen; assay type: cell-based; details: Homo sapiens; DU-145 (Prostate Cancer), NCI one dose 10 µM; read-out: Cell growth inhibition %
In short: as §1

[27] = tested on: SK-MEL-28; test: NCI one-dose SRB anti-proliferative screen; assay type: cell-based; details: Homo sapiens; SK-MEL-28 (Melanoma), NCI one dose 10 µM; read-out: Cell growth inhibition %
In short: as §1

[28] = tested on: SN12C; test: NCI one-dose SRB anti-proliferative screen; assay type: cell-based; details: Homo sapiens, SN 12C (Renal Cancer), NCI one dose 10 µM, read-out: Cell growth inhibition %
In short: as §1

[29] = tested on: MALME-3M; test: NCI one-dose SRB anti-proliferative screen; assay type: cell-based; details: Homo sapiens; MALME-3M (Melanoma), NCI one dose 10 µM; read-out: Cell growth inhibition %
In short: as §1

[30] = tested on: SW-620; test: NCI one-dose SRB anti-proliferative screen; assay type: cell-based; details: Homo sapiens; SW-620 (Colon Cancer), NCI one dose 10 µM; read-out: Cell growth inhibition %
In short: as §1

[31] = tested on: RPMI-8226; test: NCI one-dose SRB anti-proliferative screen; assay type: cell-based; details: Homo sapiens; RPMI-8226 (Leukemia), NCI one dose 10 µM; read-out: Cell growth inhibition %
In short: as §1

SMILES | melting point [°C] | inhibition at 10 µM [1] [%] | inhibition at 10 µM [2] [%] | inhibition at 10 µM [3] [%] | inhibition at 10 µM [4] [%] | inhibition at 10 µM [5] [%] | inhibition at 10 µM [6] [%] | inhibition at 10 µM [7] [%] | inhibition at 10 µM [8] [%] | inhibition at 10 µM [9] [%] | inhibition at 10 µM [10] [%] | inhibition at 10 µM [11] [%] | inhibition at 10 µM [12] [%] | inhibition at 10 µM [13] [%] | inhibition at 10 µM [14] [%] | inhibition at 10 µM [15] [%] | inhibition at 10 µM [16] [%] | inhibition at 10 µM [17] [%] | inhibition at 10 µM [18] [%] | inhibition at 10 µM [19] [%] | other results
COc1ccc(/C=C/C(=O)c2ccc(NC(=O)CSc3nnc(-c4ccc5[nH]c(-c6ccc(OC)c(OC)c6)nc5c4)o3)cc2)cc1 [Compound 7r, 2-{5-[2-(3,4-Dimethoxyphenyl)-1 H-benzo[d]imidazol-5-yl]-1,3,4-oxadiazol-2-ylthio}-N-{4-[(E)-3-(4-methoxyphenyl)acryloyl]phenyl}acetamide] | 170 to 171 | 0 | 0 | 0 | 38.6 | 0 | 0 | 20.9 | 1.88 | 2.15 | 0 | 5.88 | 7.36 | 13.2 | 0 | 0 | 20.2 | 0 | 0 | 0 | inhibition at 10 µM [20]: 0%; inhibition at 10 µM [21]: 0%; inhibition at 10 µM [22]: 2.32%; inhibition at 10 µM [23]: 0%; inhibition at 10 µM [24]: 11%; inhibition at 10 µM [25]: 7.58%; inhibition at 10 µM [26]: 0%; inhibition at 10 µM [27]: 0%; inhibition at 10 µM [28]: 6.98%; inhibition at 10 µM [29]: 8.71%; inhibition at 10 µM [30]: 0%; inhibition at 10 µM [31]: 14.7%
COc1ccc(/C=C/C(=O)c2ccc(NC(=O)CSc3nnc(-c4ccc5[nH]c(-c6ccc(Cl)cc6)nc5c4)o3)cc2)cc1 [Compound 7h, 2-{5-[2-(4-Chlorophenyl)-1 H-benzo[d]imidazol-5-yl]-1,3,4-oxadiazol-2-ylthio}-N-{4-[(E)-3-(4-methoxyphenyl)acryloyl]phenyl}acetamide] | 228 to 230 | 0 | 0 | 0 | 40.1 | 0.3 | 0 | 21.4 | 1.47 | 0 | 0 | 0 | 5.67 | 5.34 | 0 | 0 | 93.2 | 0 | 0 | 0 | activity at 10 µM ([16]; LOX IMVI (Melanoma), 10 µM one dose, read-out: Growth Percent): -32 to 18%; inhibition at 10 µM [20]: 0%; inhibition at 10 µM [21]: 0%; inhibition at 10 µM [22]: 5.06%; inhibition at 10 µM [23]: 0%; inhibition at 10 µM [24]: 16.2%; inhibition at 10 µM [25]: 17.5%; inhibition at 10 µM [26]: 0%; inhibition at 10 µM [27]: 0%; inhibition at 10 µM [28]: 6.65%; inhibition at 10 µM [29]: 6.52%; inhibition at 10 µM [30]: 0%; inhibition at 10 µM [31]: 35.6%
